For 27 compounds, IC50 results are on record in patent publication US10611750B2, “Tetrahydroquinoline compositions as bet bromodomain inhibitors” (FORMA Therapeutics, Inc., priority 2013, dated 2020).

Assay [1] concerns acute myelocytic leukemia (AML) cell line MV4-11. Briefly: Oncology cell growth assay (3-day proliferation, CellTiter-Glo). It counts as cell-based. As to conditions: Homo sapiens, MV4-11, 72 h, MV4-11 cells, 3000 cells/well, compounds listed under IC50 range headings, read-out: MV411 IC50 (gIC50, inhibition of proliferation). The procedure, abridged: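 MV4-11 AML cells (RPMI 1640, 10% FBS) plated at 3000 cells/well and exposed 72 h to compound at final 10 to 0.0045 μM (3-fold series). Viability read by CellTiter-Glo luminescence; gIC50 from four-parameter logistic fit between DMSO control and no-cell background.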
In general terms: Cellular ATP, detected with luciferase, serves as a proxy for viable cell number.

The target of assay [2] is T1, BRD4 Bromodomain 1 (BRD4 BD1) (Homo sapiens, UniProt O60885).
T1 construct: 44-168 and BRD4 BD2
The assay can be described thus: AlphaScreen binding assay, BRD4 BD1. As to conditions: His-tagged BRD4 BD1 50 nM, biotinylated H4 (1-21) K5/8/12/16 tetra-acetylated peptide 50 nM, compounds listed under IC50 range headings. The procedure, abridged:
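Compound dilution series were mixed with His-tagged BRD4 bromodomain and biotinylated tetra-acetylated H4 (1-21) peptide at pH 7.3 (BD1 and peptide at 50 nM, BD2 and peptide at 100 nM). Donor and acceptor beads were then added, and plates were equilibrated at least 1 h before reading. IC50 values were fitted with a four-parameter logistic model.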
A general note: Alpha assays give light when donor and acceptor beads are brought close together.

Bounds are passed on as bounds.

In the case of `C[C@H]1CCc2c(ccc(-c3cn(C)nn3)c2Oc2ccccc2)N1C(=O)C1CC1` [I-219, (S)-cyclopropyl(2-methyl-6-(1-methyl-1H-1,2,3-triazol-4-yl)-5-phenoxy-3,4-dihydroquinolin-1(2H)-yl)methanone], the IC50 was < 500 nM in assay [1] and 100 to 1000 nM in assay [2].

With `Cc1nnc(-c2ccc3c(c2Oc2ccccc2)CC[C@H](C)N3C(=O)C2CC2)s1` [I-220, (S)-cyclopropyl(2-methyl-6-(5-methyl-1,3,4-thiadiazol-2-yl)-5-phenoxy-3,4-dihydroquinolin-1(2H)-yl)methanone], the IC50 in assay [1] is < 500 nM; in assay [2], 1000 to 10000 nM.

Regarding `C[C@H]1CCc2c(ccc(-c3cn(C)cn3)c2Oc2ccccc2)N1C(=O)C1CC1` [I-221, (S)-cyclopropyl(2-methyl-6-(1-methyl-1H-imidazol-4-yl)-5-phenoxy-3,4-dihydroquinolin-1(2H)-yl)methanone], the IC50 in assay [1] was < 500 nM; in assay [2], 100 to 1000 nM.

With `COC(=O)N1c2ccc(-c3cnn(C4CCCS(=O)(=O)C4)c3)c(Oc3ccc(F)cc3)c2CC[C@@H]1C` (stereo partly drawn) [I-222, Methyl (2S)-6-(1-(1,1-dioxidotetrahydro-2H-thiopyran-3-yl)-1H-pyrazol-4-yl)-5-(4-fluorophenoxy)-2-methyl-3,4-dihydroquinoline-1 (2H)-carboxylate], the IC50 in assay [1] is < 500 nM; in assay [2], 100 to 1000 nM.

Turning to `COC(=O)N1c2ccc(-c3cnn(C4CS(=O)(=O)C4)c3)c(Oc3ccc(F)cc3)c2CC[C@@H]1C` [I-223, methyl (S)-6-(1-(1,1-dioxidothietan-3-yl)-1H-pyrazol-4-yl)-5-(4-fluorophenoxy)-2-methyl-3,4-dihydroquinoline-1(2H)-carboxylate], the figures for the IC50 in assay [1] and in assay [2] were < 500 nM and 100 to 1000 nM, respectively.

As for `C[C@H]1CCc2c(ccc(-c3cnn(C4CS(=O)(=O)C4)c3)c2Oc2ccc(F)cc2)N1C(=O)C1CC1` [I-229, 3-[4-[(2S)-1-cyclopropanecarbonyl-5-(4-fluorophenoxy)-2-methyl-1,2,3,4-tetrahydroquinolin-6-yl]-1H-pyrazol-1-yl]-1λ^6-thietane-1,1-dione], the IC50 is < 500 nM in assay [1] and 100 to 1000 nM in assay [2].

As for `C[C@H]1CCc2c(ccc(-c3cnn(C4CS(=O)(=O)C4)c3)c2Oc2ccccc2)N1C(=O)C1CC1` [I-230, 3-[4-[(2S)-1-cyclopropanecarbonyl-2-methyl-5-phenoxy-1,2,3,4-tetrahydroquinolin-6-yl]-1H-pyrazol-1-yl]-1λ^6-thietane-1,1-dione], the IC50 in assay [1] was < 500 nM; in assay [2], 100 to 1000 nM.

With `C[C@H]1CCc2c(ccc(-c3cnoc3)c2Oc2ccccc2)N1C(=O)C1CC1` [I-231, (S)-cyclopropyl(6-(isoxazol-4-yl)-2-methyl-5-phenoxy-3,4-dihydroquinolin-1 (2H)-yl)methanone], the IC50 is < 500 nM in assay [1] and 1000 to 10000 nM in assay [2].

Turning to `COC(=O)N1c2ccc(-c3cn(C)nn3)c(Oc3ccccc3)c2CC[C@@H]1C` [I-232, (S)-methyl 2-methyl-6-(1-methyl-1H-1,2,3-triazol-4-yl)-5-phenoxy-3,4-dihydroquinoline-1(2H)-carboxylate], the IC50 in assay [1] is < 500 nM; in assay [2], 100 to 1000 nM.

For `CC(=O)N1c2ccc(-c3cn(C)nn3)c(Oc3ccccc3)c2CC[C@@H]1C` [I-233, (S)-1-(2-methyl-6-(1-methyl-1H-1,2,3-triazol-4-yl)-5-phenoxy-3,4-dihydroquinolin-1(2H)-yl)ethanone], the IC50 in assay [1] is < 500 nM; in assay [2], 100 to 1000 nM.

As for `COc1cccc(Oc2c(-c3cn(C)nn3)ccc3c2CC[C@H](C)N3C(=O)C2CC2)c1` [I-234, (S)-cyclopropyl(5-(3-methoxyphenoxy)-2-methyl-6-(1-methyl-1H-1,2,3-triazol-4-yl)-3,4-dihydroquinolin-1 (2H)-yl)methanone], the IC50 in assay [1] was < 500 nM; in assay [2] it was 1000 to 10000 nM.

With `C[C@H]1CCc2c(ccc(-c3cn(C)nn3)c2Oc2cccc(F)c2)N1C(=O)C1CC1` [I-235, (S)-cyclopropyl(5-(3-fluorophenoxy)-2-methyl-6-(1-methyl-1H-1,2,3-triazol-4-yl)-3,4-dihydroquinolin-1 (2H)-yl)methanone], the results for the IC50 in assay [1] and in assay [2] were < 500 nM and 1000 to 10000 nM, respectively.

`C[C@H]1CCc2c(ccc(-c3cn(C)nn3)c2Oc2ccc(F)cc2)N1C(=O)C1CC1` [I-236, (S)-cyclopropyl(5-(4-fluorophenoxy)-2-methyl-6-(1-methyl-1H-1,2,3-triazol-4-yl)-3,4-dihydroquinolin-1 (2H)-yl)methanone]: the results for the IC50 in assay [1] and in assay [2] were < 500 nM and 100 to 1000 nM, respectively.

In the case of `C[C@H]1CCc2c(Oc3ccccc3)c(-c3cn[nH]c3)cc(F)c2N1C(=O)C1CC1` [I-238, (S)-cyclopropyl(8-fluoro-2-methyl-5-phenoxy-6-(1H-pyrazol-4-yl)-3,4-dihydroquinolin-1(2H)-yl)methanone], the IC50 is < 500 nM in assay [1] and 1000 to 10000 nM in assay [2].

In the case of `COC(=O)N1c2c(F)cc(-c3cnn(C4CC4)c3)c(Oc3ccccc3)c2CC[C@@H]1C` [I-239, (S)-methyl 6-(1-cyclopropyl-1H-pyrazol-4-yl)-8-fluoro-2-methyl-5-phenoxy-3,4-dihydroquinoline-1(2H)-carboxylate], the IC50 was < 500 nM in assay [1] and 1000 to 10000 nM in assay [2].

On to `COC(=O)N1c2c(F)cc(-c3cn[nH]c3)c(Oc3ccccc3)c2CC[C@@H]1C` [I-240, (S)-methyl 8-fluoro-2-methyl-5-phenoxy-6-(1H-pyrazol-4-yl)-3,4-dihydroquinoline-1(2H)-carboxylate], for which the figures for the IC50 in assay [1] and in assay [2] were < 500 nM and 100 to 1000 nM, respectively.

For the compound `CC(=O)N1c2c(F)cc(-c3cnn(C4CC4)c3)c(Oc3ccccc3)c2CC[C@@H]1C` [I-241, (S)-1-(6-(1-cyclopropyl-1H-pyrazol-4-yl)-8-fluoro-2-methyl-5-phenoxy-3,4-dihydroquinolin-1(2H)-yl)ethanone], the IC50 was < 500 nM in assay [1] and 100 to 1000 nM in assay [2].

For `CC(=O)N1c2c(F)cc(-c3cn[nH]c3)c(Oc3ccccc3)c2CC[C@@H]1C` [I-242, (S)-1-(8-fluoro-2-methyl-5-phenoxy-6-(1H-pyrazol-4-yl)-3,4-dihydroquinolin-1(2H)-yl)ethanone], the values for the IC50 in assay [1] and in assay [2] were < 500 nM and 100 to 1000 nM, respectively.

Consider `C[C@H]1CCc2c(ccc(C3CC3)c2Oc2ccccc2)N1C(=O)C1CC1` [I-243, (S)-cyclopropyl(6-cyclopropyl-2-methyl-5-phenoxy-3,4-dihydroquinolin-1 (2H)-yl) methanone], for which the results for the IC50 in assay [1] and in assay [2] were < 500 nM and 100 to 1000 nM, respectively.

As for `COC(=O)N1c2ccc(C3CC3)c(Oc3ccccc3)c2CC[C@@H]1C` [I-244, (S)-methyl 6-cyclopropyl-2-methyl-5-phenoxy-3,4-dihydroquinoline-1(2H)-carboxylate], the IC50 in assay [1] was > 1000 nM; in assay [2], ≥ 10000 nM.

`COC(=O)N1c2ccc(-c3cnn(C4CC5CN(C)CC5C4)c3)c(OC3CCC3)c2CC[C@@H]1C` (stereo partly drawn) [I-248, (2S)-methyl 5-cyclobutoxy-2-methyl-6-(1-(2-methyl-octahydrocyclopenta[c]pyrrol-5-yl)-1H-pyrazol-4-yl)-3,4-dihydroquinoline-1(2H)-carboxylate]: the IC50 in assay [1] was < 500 nM; in assay [2], 100 to 1000 nM.

For `COC(=O)N1c2ccc(-c3cnn(C4CC5CN(C)CC5C4)c3)c(Oc3ccc(F)cc3)c2CC[C@@H]1C` (stereo partly drawn) [I-250, (2S)-methyl 5-(4-fluorophenoxy)-2-methyl-6-(1-(2-methyl-octahydrocyclopenta[c]pyrrol-5-yl)-1H-pyrazol-4-yl)-3,4-dihydroquinoline-1(2H)-carboxylate], the IC50 was < 500 nM in assay [1] and 100 to 1000 nM in assay [2].

With `C[C@H]1CCc2c(ccc(-c3cnn(C4CCNCC4)c3)c2Oc2ccccc2F)N1C(=O)C1CC1` [I-260, (S)-cyclopropyl(5-(2-fluorophenoxy)-2-methyl-6-(1-(piperidin-4-yl)-1H-pyrazol-4-yl)-3,4-dihydroquinolin-1(2H)-yl)methanone], the IC50 in assay [1] is < 500 nM; in assay [2], 100 to 1000 nM.

Take `COC(=O)N1c2ccc(-c3cnn(C4CNC4)c3)c(Oc3ccccc3F)c2CC[C@@H]1C` [I-261, (S)-methyl 6-(1-(azetidin-3-yl)-1H-pyrazol-4-yl)-5-(2-fluorophenoxy)-2-methyl-3,4-dihydroquinoline-1(2H)-carboxylate]: the IC50 was < 500 nM in assay [1] and 100 to 1000 nM in assay [2].

Consider `C[C@H]1CCc2c(ccc(-c3cnn(C4CCNCC4)c3)c2Oc2ccc(F)cc2F)N1C(=O)C1CC1` [I-264, (S)-cyclopropyl (5-(2,4-difluorophenoxy)-2-methyl-6-(1-(piperidin-4-yl)-1H-pyrazol-4-yl)-3,4-dihydroquinolin-1 (2H)-yl)methanone], for which the results for the IC50 in assay [1] and in assay [2] were < 500 nM and 100 to 1000 nM, respectively.

Take `C[C@H]1CCc2c(ccc(-c3cnn(C4CNC4)c3)c2Oc2ccc(F)cc2F)N1C(=O)C1CC1` [I-265, (S)-(6-(1-(azetidin-3-yl)-1H-pyrazol-4-yl)-5-(2,4-difluorophenoxy)-2-methyl-3,4-dihydroquinolin-1(2H)-yl)(cyclopropyl)methanone]: the IC50 in assay [1] is < 500 nM; in assay [2], 100 to 1000 nM.

As for `COC(=O)N1c2ccc(-c3cnn(C4CNC4)c3)c(Oc3ccc(F)cc3F)c2CC[C@@H]1C` [I-266, (S)-methyl 6-(1-(azetidin-3-yl)-1H-pyrazol-4-yl)-5-(2,4-difluorophenoxy)-2-methyl-3,4-dihydroquinoline-1(2H)-carboxylate], the IC50 was < 500 nM in assay [1] and 100 to 1000 nM in assay [2].
